Results from US9919053B2, “Cabazitaxel composition” (SUPRATEK PHARMA INC., priority 2012, dated 2018).
Values after ≈ are worked out from the molar mass of the structure shown. Where two headings read alike, the source gives them in different places.

Experiments:
[1] = Equilibrium solubility of cabazitaxel in aqueous SBECD; assay type: physicochemical; conditions: aqueous SBECD solution, 23 °C, aqueous with cosolvent or surfactant or cyclodextrin, thermodynamic from solid, read-out: Cabazitaxel concentration (equilibrium solubility)
Experimental: Excess of cabazitael was mixed with aqueous SBECD solutions for 16 hours at 23° C. The resulting suspension was filtered through a 0.22 μm filter, and the clear filtrate solution was analyzed by HPLC.

[2] = Stability of solution of cabazitaxel in aqueous SBECD (HPLC concentration over time); assay type: physicochemical; conditions: 23° C.
Experimental: A solution containing 2.02 mg/mL cabazitaxel in 20% aqueous SBECD was prepared by sequential dissolving SBECD in water, and cabazitaxel in the resulting solution, followed by filtration through a 0.22 μm filter. Portions of the solution was subsequently diluted with water to form three solutions having the cabazitaxel concentration listed in the Table below, respectively. The solutions were incubated at temperature 23° C. and at selected time points were analyzed using the HPLC. All solutions were stable.

**Q.** For `CO[C@H]1C(=O)[C@]2(C)[C@@H](OC)C[C@H]3OC[C@@]3(OC(C)=O)[C@H]2[C@H](OC(=O)c2ccccc2)[C@]2(O)C[C@H](OC(=O)[C@H](O)[C@@H](NC(=O)OC(C)(C)C)c3ccccc3)C(C)=C1C2(C)C` [cabazitaxel, (1S,2S,3R,4S,7R,9S,10S,12R,15S)-4-(Acetyloxy)-15-{[(2R,3S)-3-{[(tert-butoxy)carbonyl]amino}-2-hydroxy-3-phenylpropanoyl]oxy}-1-hydroxy-9,12-dimethoxy-10,14,17,17-tetramethyl-11-oxo-6-oxatetracyclo[11.3.1.^03,10.0^4,7]heptadec-13-ene-2-yl benzoate], which solubility thermodynamic at 16 h ([1]; aqueous SBECD 1%) is on record?
**A.** 270 µg/mL (≈ 323 µM)

**Q.** And the solubility thermodynamic at 16 h ([1]; aqueous SBECD 2%)?
**A.** 460 µg/mL (≈ 550 µM)

**Q.** And the solubility thermodynamic at 16 h ([1]; aqueous SBECD 10%)?
**A.** 990 µg/mL (≈ 1180 µM)

**Q.** What about the solubility thermodynamic at 16 h ([1]; aqueous SBECD 20%) of the same compound?
**A.** 2280 µg/mL (≈ 2730 µM)

**Q.** And the solubility thermodynamic at 16 h ([1]; aqueous SBECD 40%)?
**A.** 4170 µg/mL (≈ 4990 µM)

**Q.** What about the Cabazitaxel concentration ([2]; first dilution (0.098 mg/mL at 0 h) of 2.02 mg/mL in 20% SBECD, time 0 hours) of the same compound?
**A.** 0.098 mg/mL

**Q.** And the Cabazitaxel concentration ([2]; first dilution (0.098 mg/mL at 0 h), time 11 hours)?
**A.** 0.099 mg/mL

**Q.** And the Cabazitaxel concentration ([2]; first dilution (0.098 mg/mL at 0 h), time 24.5 hours)?
**A.** 0.099 mg/mL

**Q.** What about the Cabazitaxel concentration ([2]; first dilution (0.098 mg/mL at 0 h), time 36 hours) of the same compound?
**A.** 0.098 mg/mL

**Q.** What about the Cabazitaxel concentration ([2]; first dilution (0.098 mg/mL at 0 h), time 45 hours) of the same compound?
**A.** 0.098 mg/mL

**Q.** What about the Cabazitaxel concentration ([2]; first dilution (0.098 mg/mL at 0 h), time 100 hours) of the same compound?
**A.** 0.097 mg/mL

**Q.** What about the Cabazitaxel concentration ([2]; first dilution (0.098 mg/mL at 0 h), time 120 hours) of the same compound?
**A.** 0.097 mg/mL

**Q.** What about the Cabazitaxel concentration ([2]; second dilution (0.268 mg/mL at 0 h) of 2.02 mg/mL in 20% SBECD, time 0 hours) of the same compound?
**A.** 0.268 mg/mL

**Q.** What about the Cabazitaxel concentration ([2]; second dilution (0.268 mg/mL at 0 h), time 11 hours) of the same compound?
**A.** 0.268 mg/mL

**Q.** And the Cabazitaxel concentration ([2]; second dilution (0.268 mg/mL at 0 h), time 24.5 hours)?
**A.** 0.269 mg/mL

**Q.** What about the Cabazitaxel concentration ([2]; second dilution (0.268 mg/mL at 0 h), time 36 hours) of the same compound?
**A.** 0.268 mg/mL

**Q.** And the Cabazitaxel concentration ([2]; second dilution (0.268 mg/mL at 0 h), time 45 hours)?
**A.** 0.268 mg/mL

**Q.** What about the Cabazitaxel concentration ([2]; second dilution (0.268 mg/mL at 0 h), time 100 hours) of the same compound?
**A.** 0.263 mg/mL

**Q.** And the Cabazitaxel concentration ([2]; second dilution (0.268 mg/mL at 0 h), time 120 hours)?
**A.** 0.266 mg/mL

**Q.** What about the Cabazitaxel concentration ([2]; third dilution (0.510 mg/mL at 0 h) of 2.02 mg/mL in 20% SBECD, time 0 hours) of the same compound?
**A.** 0.510 mg/mL

**Q.** And the Cabazitaxel concentration ([2]; third dilution (0.510 mg/mL at 0 h), time 11 hours)?
**A.** 0.515 mg/mL

**Q.** What about the Cabazitaxel concentration ([2]; third dilution (0.510 mg/mL at 0 h), time 24.5 hours) of the same compound?
**A.** 0.518 mg/mL

**Q.** And the Cabazitaxel concentration ([2]; third dilution (0.510 mg/mL at 0 h), time 36 hours)?
**A.** 0.512 mg/mL

**Q.** What about the Cabazitaxel concentration ([2]; third dilution (0.510 mg/mL at 0 h), time 45 hours) of the same compound?
**A.** 0.517 mg/mL

**Q.** What about the Cabazitaxel concentration ([2]; third dilution (0.510 mg/mL at 0 h), time 100 hours) of the same compound?
**A.** 0.512 mg/mL

**Q.** What about the Cabazitaxel concentration ([2]; third dilution (0.510 mg/mL at 0 h), time 120 hours) of the same compound?
**A.** 0.518 mg/mL
